Test [1] deals with DNA gyrase from ciprofloxacin resistant M. smegmatis mc^2155 strain (Mycolicibacterium smegmatis, UniProt A0QNE0+P48354). In kind it is biochemical.
The subject of test [2] is DNA gyrase from ofloxacin resistant clinical isolate of M. tuberculosis (ICC-222).

`O=C(O)c1cn(C2CC2)c2cc(N3CCNCC3)c(F)cc2c1=O` [ciprofloxacin, reference compound]: in test [1], the “susceptibility of the enzyme to ciprofloxacin” value is “showed resistance”. Besides, the IC50 in test [1] (read-out: IC50 (no inhibition up to concentration)) is greater than 1210 µM.

B1: scFv:GyrA: engineered single chain antibody fragment of MsGyrA:C3, monovalent 30 kDa polypeptide, Seq. ID #2, encoded by pVNUHMscFv (protein)
scFv: AQVKLQQSGAELVRPGASVKLSCKASGYSFTVYYIYWVKQRPGQALEWIGEINPSNGGTNFNEKFKTKATLTVDKSTSTVYMQLSSLTSEDSAVYYCTRWGLRRGFAYWGQGTTVTVSSSGGGSGGGGSGGGGSDIELTQSPKSMSMSVGERVTLSCKASENVGTHVSWYQQRPEESPKLLIYGASNRYTGVPDRFTGSGSATDFTLTISNVQAEDLADYHCGQTYSYPFTFGLGTKLEIKRAAAGAPVPYPDPLEPRAA
Turning to B1, the “concentration that completely inhibited DNA gyrase” value in test [2] is on record as 10 nM.

The values are drawn from US20060229438A1, “Monoclonal antibody derived peptide inhibitors for mycobacterial dna gyrase” (priority 2002, published 2006).
